# Patent US20230021483A1, “[…] […] METHOD AND CLASSIFICATION OF PHARMACEUTICAL COMPONENTS BY USING TRANSCRIPTOMES” (National Institutes of Biomedical Innovation, Health and …, priority 2016, published 2023)
# Legend:
# [1] = system: adjuvant-associated biological themes in LV, SP, LN
# Outline: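 Enrichment score S sums −log(p) over consensus themes whose names contain a pre-selected adjuvant-associated term such as "stress" or "cytokine". Consensus requires a theme in all three mice of a group, p<0.05. Themes come from TargetMine analysis of genes with eij/ei(c)>2.0, Fisher's exact test, Holm-Bonferroni-corrected.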
# liver (LV) = test: Whole organ transcriptome (GeneChip microarray) of liver 6 h after adjuvant administration: sDEGs, hierarchical clustering; format: in vivo, C57BL/6 mice; for cluster of strongly responding individual samples in LV (clustering exceptions): key: G1 (interferon signaling); G2 (metabolism of lipids and lipoproteins); G3 (response to stress); G4 (response to wounding); G5 (phosphate-containing compound metabolic process); G6 (phagosome)
substance,measurement,setting,value
"D35: A class CpG ODN (5′-GGTGCATCGATGCAGGGGGG-3′), TLR9 ligand (DNA GGTGCATCGATGCAGGGGGG; chemistry not given here)","tissue damage-associated annotations (cell death, wounding) in LNs","[1]; LN, i.d., fold change >2",did not induce cell death and wounding in LNs
same,GO annotation: Cytokine-cytokine receptor interaction (Term: cytokine),"[1]; LV, ID",0
same,GO annotation: Cytokine-cytokine receptor interaction|Endocytosis (Term: cytokine),"[1]; LV, ID",5.2
same,GO annotation: I-kappaB kinase/NF-kappaB signaling (Term: NF-kappa B signaling pathway),"[1]; LV, ID",0
same,GO annotation: NF-kappa B signaling pathway (Term: NF-kappa B signaling pathway),"[1]; LV, ID",5.27
same,GO annotation: TNF signaling pathway (Term: TNF signaling pathway),"[1]; LV, ID",12.1
same,GO annotation: activation of immune response (Term: immune response),"[1]; LV, ID",0
same,GO annotation: activation of innate immune response (Term: innate immune response),"[1]; LV, ID",0
same,GO annotation: acute inflammatory response (Term: inflammatory response),"[1]; LV, ID",0
same,GO annotation: adaptive immune response (Term: adaptive immune response),"[1]; LV, ID",0
same,GO annotation: apoptotic process (Term: apoptosis),"[1]; LV, ID",0
same,GO annotation: apoptotic signaling pathway (Term: apoptosis),"[1]; LV, ID",0
same,GO annotation: cell chemotaxis (Term: chemotaxis),"[1]; LV, ID",4.51
same,GO annotation: cell death (Term: cell death),"[1]; LV, ID",5.7
same,GO annotation: cell migration (Term: migration),"[1]; LV, ID",0
same,GO annotation: cellular response to cytokine stimulus (Term: cytokine),"[1]; LV, ID",3.28
same,GO annotation: cellular response to interferon-alpha (Term: IFN alpha),"[1]; LV, ID",0
same,GO annotation: cellular response to stress (Term: stress),"[1]; LV, ID",0
same,GO annotation: chemokine production (Term: chemokine),"[1]; LV, ID",0
same,GO annotation: chemokine-mediated signaling pathway (Term: chemokine),"[1]; LV, ID",0
same,GO annotation: chemotaxis (Term: chemotaxis),"[1]; LV, ID",0
same,GO annotation: cytokine biosynthetic process (Term: cytokine),"[1]; LV, ID",0
same,GO annotation: cytokine metabolic process (Term: cytokine),"[1]; LV, ID",0
same,GO annotation: cytokine production (Term: cytokine),"[1]; LV, ID",0
same,GO annotation: cytokine secretion (Term: cytokine),"[1]; LV, ID",0
same,GO annotation: cytokine-mediated signaling pathway (Term: cytokine),"[1]; LV, ID",0
same,GO annotation: death (Term: cell death),"[1]; LV, ID",0
same,GO annotation: defense response (Term: defense response),"[1]; LV, ID",5.76
same,GO annotation: defense response to Gram-positive bacterium (Term: defense response),"[1]; LV, ID",0
same,GO annotation: defense response to bacterium (Term: defense response),"[1]; LV, ID",0
same,GO annotation: defense response to other organism (Term: defense response),"[1]; LV, ID",0
same,GO annotation: defense response to protozoan (Term: defense response),"[1]; LV, ID",0
same,GO annotation: defense response to virus (Term: defense response),"[1]; LV, ID",0
same,GO annotation: granulocyte chemotaxis (Term: chemotaxis),"[1]; LV, ID",0
same,GO annotation: granulocyte migration (Term: migration),"[1]; LV, ID",0
same,GO annotation: immune response (Term: immune response),"[1]; LV, ID",0
same,GO annotation: immune response-activating signal transduction (Term: immune response),"[1]; LV, ID",0
same,GO annotation: immune response-regulating signaling pathway (Term: immune response),"[1]; LV, ID",0
same,GO annotation: inflammatory response (Term: inflammatory response),"[1]; LV, ID",0
same,GO annotation: innate immune response (Term: innate immune response),"[1]; LV, ID",0
same,GO annotation: innate immune response-activating signal transduction (Term: innate immune response),"[1]; LV, ID",0
same,GO annotation: interferon-alpha production (Term: IFN alpha),"[1]; LV, ID",0
same,GO annotation: intrinsic apoptotic signaling pathway (Term: apoptosis),"[1]; LV, ID",0
same,GO annotation: leukocyte chemotaxis (Term: chemotaxis),"[1]; LV, ID",0
same,GO annotation: leukocyte migration (Term: migration),"[1]; LV, ID",0
same,GO annotation: leukocyte migration involved in inflammatory response (Term: inflammatory response),"[1]; LV, ID",0
same,GO annotation: lymphocyte chemotaxis (Term: chemotaxis),"[1]; LV, ID",0
same,GO annotation: lymphocyte migration (Term: migration),"[1]; LV, ID",0
same,GO annotation: myeloid leukocyte migration (Term: migration),"[1]; LV, ID",0
same,GO annotation: negative regulation of apoptotic process (Term: apoptosis),"[1]; LV, ID",0
same,GO annotation: negative regulation of cell death (Term: cell death),"[1]; LV, ID",0
same,GO annotation: negative regulation of cytokine production (Term: cytokine),"[1]; LV, ID",0
same,GO annotation: negative regulation of defense response (Term: defense response),"[1]; LV, ID",0
same,GO annotation: negative regulation of immune response (Term: immune response),"[1]; LV, ID",0
same,GO annotation: negative regulation of innate immune response (Term: innate immune response),"[1]; LV, ID",0
same,GO annotation: negative regulation of programmed cell death (Term: cell death),"[1]; LV, ID",0
same,GO annotation: neutrophil chemotaxis (Term: chemotaxis),"[1]; LV, ID",0
same,GO annotation: neutrophil migration (Term: migration),"[1]; LV, ID",0
same,GO annotation: positive regulation of I-kappaB kinase/NF-kappaB signaling (Term: NF-kappa B signaling pathway),"[1]; LV, ID",0
same,GO annotation: positive regulation of adaptive immune response (Term: adaptive immune response),"[1]; LV, ID",0
same,GO annotation: positive regulation of apoptotic process (Term: apoptosis),"[1]; LV, ID",3.18
same,GO annotation: positive regulation of cell death (Term: cell death),"[1]; LV, ID",0
same,GO annotation: positive regulation of cell migration (Term: migration),"[1]; LV, ID",0
same,GO annotation: positive regulation of chemokine production (Term: chemokine),"[1]; LV, ID",0
same,GO annotation: positive regulation of chemotaxis (Term: chemotaxis),"[1]; LV, ID",0
same,GO annotation: positive regulation of cytokine biosynthetic process (Term: cytokine),"[1]; LV, ID",0
same,GO annotation: positive regulation of cytokine production (Term: cytokine),"[1]; LV, ID",0
same,GO annotation: positive regulation of defense response (Term: defense response),"[1]; LV, ID",0
same,GO annotation: positive regulation of immune response (Term: immune response),"[1]; LV, ID",0
same,GO annotation: positive regulation of inflammatory response (Term: inflammatory response),"[1]; LV, ID",0
same,GO annotation: positive regulation of innate immune response (Term: innate immune response),"[1]; LV, ID",0
same,GO annotation: positive regulation of interferon-alpha production (Term: IFN alpha),"[1]; LV, ID",0
same,GO annotation: positive regulation of leukocyte chemotaxis (Term: chemotaxis),"[1]; LV, ID",0
same,GO annotation: positive regulation of leukocyte migration (Term: migration),"[1]; LV, ID",0
same,GO annotation: positive regulation of programmed cell death (Term: cell death),"[1]; LV, ID",3.05
same,GO annotation: positive regulation of response to wounding (Term: wounding),"[1]; LV, ID",0
same,GO annotation: positive regulation of tumor necrosis factor superfamily cytokine (Term: cytokine),"[1]; LV, ID",0
same,GO annotation: production of molecular mediator of immune response (Term: immune response),"[1]; LV, ID",0
same,GO annotation: programmed cell death (Term: cell death),"[1]; LV, ID",0
same,GO annotation: regulation of I-kappaB kinase/NF-kappaB signaling (Term: NF-kappa B signaling pathway),"[1]; LV, ID",0
same,GO annotation: regulation of adaptive immune response (Term: adaptive immune response),"[1]; LV, ID",0
same,GO annotation: regulation of apoptotic process (Term: apoptosis),"[1]; LV, ID",0
same,GO annotation: regulation of apoptotic signaling pathway (Term: apoptosis),"[1]; LV, ID",0
same,GO annotation: regulation of cell death (Term: cell death),"[1]; LV, ID",0
same,GO annotation: regulation of cell migration (Term: migration),"[1]; LV, ID",0
same,GO annotation: regulation of chemokine production (Term: chemokine),"[1]; LV, ID",0
same,GO annotation: regulation of chemotaxis (Term: chemotaxis),"[1]; LV, ID",0
same,GO annotation: regulation of cytokine biosynthetic process (Term: cytokine),"[1]; LV, ID",0
same,GO annotation: regulation of cytokine production (Term: cytokine),"[1]; LV, ID",0
same,GO annotation: regulation of defense response (Term: defense response),"[1]; LV, ID",0
same,GO annotation: regulation of defense response to virus (Term: defense response),"[1]; LV, ID",0
same,GO annotation: regulation of defense response to virus by host (Term: defense response),"[1]; LV, ID",0
same,GO annotation: regulation of immune response (Term: immune response),"[1]; LV, ID",0
same,GO annotation: regulation of inflammatory response (Term: inflammatory response),"[1]; LV, ID",0
same,GO annotation: regulation of innate immune response (Term: innate immune response),"[1]; LV, ID",0
same,GO annotation: regulation of interferon-alpha production (Term: IFN alpha),"[1]; LV, ID",0
same,GO annotation: regulation of intrinsic apoptotic signaling pathway (Term: apoptosis),"[1]; LV, ID",0
same,GO annotation: regulation of leukocyte chemotaxis (Term: chemotaxis),"[1]; LV, ID",0
same,GO annotation: regulation of leukocyte migration (Term: migration),"[1]; LV, ID",0
same,GO annotation: regulation of programmed cell death (Term: cell death),"[1]; LV, ID",0
same,GO annotation: regulation of response to stress (Term: stress),"[1]; LV, ID",0
same,GO annotation: regulation of response to wounding (Term: wounding),"[1]; LV, ID",0
same,GO annotation: regulation of tumor necrosis factor superfamily cytokine production (Term: cytokine),"[1]; LV, ID",0
same,GO annotation: response to cytokine (Term: cytokine),"[1]; LV, ID",8.12
same,GO annotation: response to interferon-alpha (Term: IFN alpha),"[1]; LV, ID",0
same,GO annotation: response to stress (Term: stress),"[1]; LV, ID",9.13
same,GO annotation: response to wounding (Term: wounding),"[1]; LV, ID",0
same,GO annotation: taxis (Term: chemotaxis),"[1]; LV, ID",0
same,GO annotation: tumor necrosis factor superfamily cytokine production (Term: cytokine),"[1]; LV, ID",0
same,IFN beta: cellular response to interferon-beta,"[1]; LV, ID",0
same,IFN beta: interferon-beta production,"[1]; LV, ID",0
same,IFN beta: positive regulation of interferon-beta production,"[1]; LV, ID",0
same,IFN beta: regulation of interferon-beta production,"[1]; LV, ID",0
same,IFN beta: response to interferon-beta,"[1]; LV, ID",0
same,IFN gamma: cellular response to interferon-gamma,"[1]; LV, ID",0
same,IFN gamma: interferon-gamma production,"[1]; LV, ID",0
same,IFN gamma: regulation of interferon-gamma production,"[1]; LV, ID",0
same,IFN gamma: response to interferon-gamma,"[1]; LV, ID",0
same,interleukin-6: interleukin-6 production,"[1]; LV, ID",0
same,interleukin-6: positive regulation of interleukin-6 production,"[1]; LV, ID",0
same,interleukin-6: regulation of interleukin-6 production,"[1]; LV, ID",0
same,interleukin-12: interleukin-12 production,"[1]; LV, ID",0
same,interleukin-12: positive regulation of interleukin-12 production,"[1]; LV, ID",0
same,interleukin-12: regulation of interleukin-12 production,"[1]; LV, ID",0
same,GO annotation: adaptive immune response based on somatic recombination of immune receptors built from immunoglobulin superfamily domains (Term: adaptive immune response),"[1]; mouse, in vivo",0
same,GO annotation: regulation of adaptive immune response based on somatic recombination of immune receptors built from immunoglobulin superfamily domains (Term: adaptive immune response),"[1]; mouse, in vivo",0
same,"Number of gene probes with statistically significant changes (sDEGs), LV, Down","liver (LV); i.d. administration, liver, fold change <0.667, p<0.01, customized PA call=1, 6 h after adjuvant",36
same,"Number of gene probes with statistically significant changes (sDEGs), LV, Up","liver (LV); i.d. administration, liver, fold change >1.5, p<0.01, customized PA call=1, 6 h after adjuvant",15
same,cluster of strongly responding individual samples in LV (clustering exceptions),liver (LV); samples D35_ID_x2 and K3_ID_x3 only,G2
